Where a name gives a salt, the structure may show the parent alone.
Tests used:
mouse (Harlan ND4) = experiment: mouse hot plate test (mouse jump); type: in vivo; details: subcutaneous injection, tested 15 minutes after administration, hot plate 55° C.
Experimental: In the mouse hot plate test, an upright acrylic cylinder comprising, as its base, a hot plate surface which is maintained at 55° C. is used. A mouse (Harlan ND4) is given, by subcutaneous injection, a predetermined amount of test compound dissolved or suspended in a suitable carrier, and, 15 minutes after administration of the test compound, the mouse is placed on the hot plate surface. The latency in seconds until the mouse jumps from the hot plate surface is measured. […] This must occur in a dose range which produces no motor incoordination or incapacitation. The following Table records ED50 results obtained from this test. By the term "ED50 " is meant that dose which produces analgesia in 50% of the mice tested. Analgesia is defined as a response latency in the presence of test compound that is equal to or greater than the control response latency plus two standard deviations. The percent analgesia data are converted to probits, and the ED50 is calculated by regression analysis of the dose-response data. Each dose response curve must have at least four points, and each point is determined using data from a minimum of ten treated mice and ten control mice.

Cox Standard albino mice = experiment: mouse writhing test (acetic acid induced); type: in vivo; details: 0.6% acetic acid i.p., dose reducing writhing frequency by 50%
Experimental: In the mouse writhing test, a writhing response is defined as a contraction of the abdominal musculature followed by extension of the hind limbs. Acetic acid administered intraperitoneally (10 ml./kg.) at a concentration of 0.6% was used to induce a writhing response. Five Cox Standard albino mice weighing 20-22 g. after being fasted overnight were observed simultaneously for the writhing response. Each mouse was used only once. The observation period was then […] and started five minutes following administration of the acetic acid. Inhibition of mouse writhing was calculated from the total number of writhes in the control and test compound-treated groups according to the following formula: [formula]
The dose required to reduce the frequency of writhing by 50% is defined as the ED50 and is calculated by "The use of Regression Line in Reverse", [Brownlee, K.A., Statistical Theory and Methodology in Science and Engineering, 2nd Ed., New York, John Wiley and Sons (1965)].

mice = details: cited from earlier work

Row | Compound | Mouse Jump ED50 (mouse (Harlan ND4)) | Mouse Writhing, ED50, Oral (Cox Standard albino mice) | Mouse Writhing, ED50, Subcutaneous (Cox Standard albino mice) | analgesic activity upon intracerebroventricular administration (mice)
1 | CCN(C(=O)CNC(=O)[C@@H](C)NC(=O)[C@H](Cc1ccc(O)cc1)NC)[C@@H](Cc1ccccc1)CN(C)C [Ala Et H, L-(N-Methyl)tyrosyl-D-alanylglycine, [N-ethyl-N-(1-benzyl-2-dimethylamino)ethyl]amide, Diacetate Salt] | 0.04 mg/kg | 50.4 mg/kg | 1.14 mg/kg | 
2 | CCN(C(=O)CNC(=O)[C@@H](C)NC(=O)[C@H](Cc1ccc(O)cc1)NC)[C@@H](Cc1ccc(F)cc1)CN(C)C [Ala Et p-F, L-(N-Methyl)tyrosyl-D-alanylglycine[N-ethyl-N-[1-(4'-fluorobenzyl)-2-dimethylamino]ethyl]amide, Diacetate Salt] | 0.04 mg/kg | 88.2 mg/kg | 2.1 mg/kg | 
3 | CN[C@@H](Cc1ccc(O)cc1)C(=O)N[C@H](C)C(=O)NCC(=O)N(C)[C@@H](Cc1ccccc1)CN(C)C [Ala Me H, L-(N-Methyl)tyrosyl-D-alanylglycine, [N-methyl-N-(1-benzyl-2-dimethylamino)ethyl]amide, Diacetate Salt] | 0.05 mg/kg | ~ 160 mg./kg. | 1.81 mg/kg | 
4 | CCN(C(=O)CNC(=O)[C@@H](COC)NC(=O)[C@H](Cc1ccc(O)cc1)NC)[C@@H](Cc1ccccc1)CN(C)C [Ser(Me) Et H, L-(N-Methyl)tyrosyl-D-(O-methyl)serylglycine, [N-ethyl-N-(1-benzyl-2-dimethylamino)ethyl]amide, Diacetate Salt] | 0.09 mg/kg | 53.5 mg/kg | 3.6 mg/kg | 
5 | H-Tyr-Gly-Gly-Phe-Leu-OH [leucine enkephalin] |  |  |  | exhibit analgesic activity
6 | H-Tyr-Gly-Gly-Phe-Met-OH [methionine enkephalin] |  |  |  | exhibit analgesic activity
